Source: patent US20220169639A1 (priority 2018, published 2022)

Legend:
[1] = test system: HBV (HBsAg) in HBV-infected PHH; experiment: Cryopreserved primary human hepatocytes (PHH) HBV infection assay, extracellular HBsAg (CLIA); format: cell-based; settings: Hepatitis B virus, Hepatocyte, 216 h, read-out: HBsAg IC50
Method: This assay is used to confirm the anti-HBV effect of the compounds in HBV PHH infection assay. Cryopreserved PHH (BioreclamationIVT, Lot YJM) was thawed at 37° C. and gently transferred into pre-warmed InVitroGRO HT medium (BioreclamationIVT, Cat. S03317). The mixture was centrifuged at 70 relative centrifugal force (RCF) for 3 minutes at RT, and the supernatant was discarded. Pre-warmed InVitroGRO CP medium (BioreclamationIVT, Cat #S03316) was added to the cell pellet to gently re-suspend cells. The cells were seeded at the density of 5.8×10^4 cells per well to collagen I coated 96-well plate (Gibco, Cat. A1142803) with the InVitroGRO CP medium. All plates were incubated at 37° C. with 5% CO2 and 85% humidity.
At 20 hours after plating, the medium was changed to PHH culture medium (Dulbecco's Modified Eagle Medium (DMEM)/F12 (1:1) (Gibco, Cat. 11320-033), 10% fetal bovine serum (Gibco Cat. 10099141), 100 U/mL penicillin, 100 μg/mL streptomycin (Gibco, Cat. 151401-122), 5 ng/mL human epidermal growth factor (Invitrogen Cat. PHG0311L), 20 ng/mL dexamethasone (Sigma, Cat. D4902) and 250 ng/mL human recombinant insulin (Gibco, Cat. 12585-014)). And the cells were incubated at 37° C. with 5% CO2 and 85% humidity for 4 hours. The medium was then changed to pre-warmed PHH culture medium containing 4% polyethylene glycol (PEG) MW8000 (Sigma, Cat. P1458-50ML) and 1% DMSO (Sigma, Cat. D2650). 5.8×10^6 genomic equivalents of HBV were added into the medium.
At 24 hours post-infection, the cells were gently washed with PBS and refreshed with PHH culture medium supplemented with 1% DMSO, and 0.25 mg/mL Matrix gel (Corning, Cat. 356237) at 200 μL per well. All plates were immediately placed in at 37° C. CO2 incubator. 24 hours later, serial dilutions of compounds made with DMSO were further diluted with the same culture medium (PHH culture medium supplemented with 1% DMSO and 0.25 mg/mL Matrix gel as described above) before they were added to the cells to reach desired final compound concentrations and 1% DMSO concentration. The medium containing the compounds were refreshed every three days.
At 9 days post-compound treatment, extracellular HBsAg level were measured with Chemiluminescence Immuno Assay (CLIA) kit (Autobio, HBsAg Quantitative CLIA). Extracellular HBV DNA was extracted by MagNA Pure 96 system (Roche) and then determined
HBsAg IC50 and HBV DNA IC50 values were derived from the dose-response curve using 4 parameter logistic curve fit method. The compounds of formula (I) have HBsAg IC50<20 μM, particularly <1 μM; and HBV DNA IC50<50 μM. Results of Cryopreserved PHH assay are given in TableBIO2.

[2] = test system: HBeAg (surrogate marker for cccDNA) in HepDES19 cells; experiment: Engineered HepDES19 primary screen assay (HBeAg ELISA); format: cell-based, HBV; settings: Hepatitis B virus, 120 h, HBeAg in culture supernatant, 5 days incubation, read-out: IC50 (HepDES19 primary screen assay, inhibition of extracellular HBeAg level)
Summary of the method: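 HepDES19 cells pre-induced by Tet withdrawal for 8 days, frozen, then seeded and dosed after 24 h with half-log compound dilutions (1% DMSO final). After 5 days at 37 °C, HBeAg measured by ELISA and viability by CCK-8; IC50 from 4-parameter logistic fit.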

Compound | IC50 [1] | IC50 [2]
O=C(O)[C@H]1CCN(CC(O)COc2cc(Br)ccc2-c2cc(=O)c3cccc(Cl)c3o2)C1 (stereo partly drawn) [Example 164, (3S)-1-[3-[5-bromo-2-(8-chloro-4-oxo-chromen-2-yl)phenoxy]-2-hydroxy-propyl]pyrrolidine-3-carboxylic acid] | 9.66 µM | 2.96 µM
CS(=O)(=O)NC(=O)[C@@H]1CCN(CCOc2cc(Br)ccc2-c2cc(=O)c3cccc(Cl)c3o2)C1 [Example 064, (3R)-1-[2-[5-bromo-2-(8-chloro-4-oxo-chromen-2-yl)phenoxy]ethyl]-N-methylsulfonyl-pyrrolidine-3-carboxamide] | 6.41 µM | 0.08 µM
O=C(O)C1CCCN1CCOc1cc(Br)ccc1-c1cc(=O)c2cccc(Cl)c2o1 (centres unmarked) [Example 020, 1-[2-[5-bromo-2-(8-chloro-4-oxo-chromen-2-yl)phenoxy]ethyl]pyrrolidine-2-carboxylic acid] | 8.36 µM | 0.87 µM
O=c1cc(-c2ccc(Br)cc2OCCN2CCC(c3nnn[nH]3)CC2)oc2c(Cl)cccc12 [Example 087] | 7.84 µM | 5.24 µM
O=C(O)C1COCCN1CCOc1cc(Br)ccc1-c1cc(=O)c2cccc(Cl)c2o1 (centres unmarked) [Example 052, 4-[2-[5-bromo-2-(8-chloro-4-oxo-chromen-2-yl)phenoxy]ethyl]morpholine-3-carboxylic acid] | 5.82 µM | 0.08 µM
O=C1CCCN1CCOc1cc(Br)ccc1-c1cc(=O)c2cccc(Cl)c2o1 [Example 075, 1-[2-[5-bromo-2-(8-chloro-4-oxo-chromen-2-yl)phenoxy]ethyl]pyrrolidin-2-one] | 3.57 µM | 0.11 µM
CCOc1ccc(-c2cc(=O)c3cccc(Cl)c3o2)c(OCCCN2CC[C@H](C(=O)O)C2)c1 [Example 015, (3S)-1-[3-[2-(8-chloro-4-oxo-chromen-2-yl)-5-ethoxy-phenoxy]propyl]pyrrolidine-3-carboxylic acid] | 9.75 µM | 7.85 µM
O=C(O)C1CC(N2CCC(Oc3cc(Br)ccc3-c3cc(=O)c4cccc(Cl)c4o3)CC2)C1 (centres unmarked) [Example 131] | 5.05 µM | 5.86 µM
O=C(O)[C@H]1CCN(CCCOc2cc(C(F)(F)F)ccc2-c2cc(=O)c3cccc(Cl)c3o2)C1 [Example 014, (3S)-1-[3-[2-(8-chloro-4-oxo-chromen-2-yl)-5-(trifluoromethyl)phenoxy]propyl]pyrrolidine-3-carboxylic acid] | 5.08 µM | 0.37 µM
CCOC(=O)C(=O)NCCOc1cc(C(F)(F)F)ccc1-c1cc(=O)c2cccc(Cl)c2o1 [Example 101, ethyl 2-[2-[2-(8-chloro-4-oxo-chromen-2-yl)-5-(trifluoromethyl)phenoxy]ethylamino]-2-oxo-acetate] | 1.41 µM | 1.08 µM
O=C(O)C1CC(NCCCOc2cc(C(F)(F)F)ccc2-c2cc(=O)c3cccc(Cl)c3o2)C1 (centres unmarked) [Example 006, 3-[3-[2-(8-chloro-4-oxo-chromen-2-yl)-5-(trifluoromethyl)phenoxy]propylamino]cyclobutanecarboxylic acid] | 3.82 µM | 4.68 µM
O=C(O)C(=O)NCCCOc1cc(C(F)(F)F)ccc1-c1cc(=O)c2cccc(Cl)c2o1 [Example 117] | 1.9 µM | 2.16 µM
COc1cc(-c2cc(=O)c3cccc(Cl)c3o2)c(OCCCN2CC[C@@H](C(=O)O)C2)cc1Br [Example 016, (3R)-1-[3-[5-bromo-2-(8-chloro-4-oxo-chromen-2-yl)-4-methoxy-phenoxy]propyl]pyrrolidine-3-carboxylic acid] | 7.64 µM | 0.89 µM
O=C(O)C1CCN(CCOc2cc(Br)ccc2-c2cc(=O)c3cccc(Cl)c3o2)CC1 [Example 022, 1-[2-[5-bromo-2-(8-chloro-4-oxo-chromen-2-yl)phenoxy]ethyl]piperidine-4-carboxylic acid] | 6.8 µM | 1.31 µM
O=c1cc(-c2ccc(Br)cc2OCCN2CCS(=O)(=O)CC2)oc2c(Cl)cccc12 [Example 089, 2-[4-bromo-2-[2-(1,1-dioxo-1,4-thiazinan-4-yl)ethoxy]phenyl]-8-chloro-chromen-4-one] | 5.81 µM | 1.94 µM
O=C(O)C1CN(CCOc2cc(Br)ccc2-c2cc(=O)c3cccc(Cl)c3o2)CCO1 (centres unmarked) [Example 023, 4-[2-[5-bromo-2-(8-chloro-4-oxo-chromen-2-yl)phenoxy]ethyl]morpholine-2-carboxylic acid] | 4.95 µM | 0.13 µM
O=C(O)C(=O)N1CC[C@H](Oc2cc(C(F)(F)F)ccc2-c2cc(=O)c3cccc(Cl)c3o2)C1 [Example 126, 2-oxo-2-[(3S)-3-[2-(8-chloro-4-oxo-chromen-2-yl)-5-(trifluoromethyl)phenoxy]pyrrolidin-1-yl]acetic acid] | 4.21 µM | 0.91 µM
CN(C1CCN(CCOc2cc(Br)ccc2-c2cc(=O)c3cccc(Cl)c3o2)C1)S(C)(=O)=O (centres unmarked) [Example 076, N-[1-[2-[5-bromo-2-(8-chloro-4-oxo-chromen-2-yl)phenoxy]ethyl]pyrrolidin-3-yl]-N-methyl-methanesulfonamide] | 7.95 µM | 1.64 µM
O=C(O)CNCCCOc1cc(C(F)(F)F)ccc1-c1cc(=O)c2cccc(Cl)c2o1 [Example 125, 2-[3-[2-(8-chloro-4-oxo-chromen-2-yl)-5-(trifluoromethyl)phenoxy]propylamino]acetic acid] | 3.19 µM | 2.03 µM
O=C(O)C(=O)NC1CC(Oc2cc(C(F)(F)F)ccc2-c2cc(=O)c3cccc(Cl)c3o2)C1 (centres unmarked) [Example 133] | 2.8 µM | 4.57 µM
CS(=O)(=O)C1CCN(CCCOc2cc(C(F)(F)F)ccc2-c2cc(=O)c3cccc(Cl)c3o2)C1 (centres unmarked) [Example 088, 8-chloro-2-[2-[3-(3-methylsulfonylpyrrolidin-1-yl)propoxy]-4-(trifluoromethyl)phenyl]chromen-4-one] | 7.8 µM | 0.27 µM
COc1cc(Cl)c2oc(-c3ccc(C(F)(F)F)cc3OCCCNC(=O)C(=O)O)cc(=O)c2c1 [Example 116] | 3.41 µM | 1.8 µM
O=C(O)[C@@H]1CCN(CCOCCOc2cc(Br)ccc2-c2cc(=O)c3cccc(Cl)c3o2)C1 [Example 047, (3R)-1-[2-[2-[5-bromo-2-(8-chloro-4-oxo-chromen-2-yl)phenoxy]ethoxy]ethyl]pyrrolidine-3-carboxylic acid] | 2.83 µM | 0.99 µM
O=c1cc(-c2ccc(C(F)(F)F)cc2OCCCN2C[C@@H](O)[C@@H](O)C2)oc2c(Cl)cccc12 [Example 077, 8-chloro-2-[2-[3-[(3R,4S)-3,4-dihydroxypyrrolidin-1-yl]propoxy]-4-(trifluoromethyl)phenyl]chromen-4-one] | 2.18 µM | 0.05 µM
O=C(O)[C@@H]1CCN(CCCOc2cc(C(F)(F)F)ccc2-c2cc(=O)c3cccc(Cl)c3o2)C1 [Example 013, (3R)-1-[3-[2-(8-chloro-4-oxo-chromen-2-yl)-5-(trifluoromethyl)phenoxy]propyl]pyrrolidine-3-carboxylic acid] | 7.35 µM | 4.23 µM
